From paper PMC11423305, “Structure-Based Design of CBP/EP300 Degraders: When Cooperativity Overcomes Affinity” (JACS Au, 2024)

Legend:
EP300-BRD = molecular target: T1, EP300-BRD (Homo sapiens, UniProt Q09472); test: BROMOscan ligand binding site-directed competition assay, EP300
T1 construct: T7 phage display fusion with DNA tag for qPCR; purchased Eurofins Discovery (BROMOscan service); host or cells: E. coli infected with T7 phage
T1 sequence (Q09472 1049-1156 limits assumed): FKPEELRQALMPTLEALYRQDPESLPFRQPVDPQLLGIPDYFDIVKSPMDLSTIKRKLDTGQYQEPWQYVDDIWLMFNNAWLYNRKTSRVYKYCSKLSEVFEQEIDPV
Procedure: 2. Methods and General Procedures […]
KD values were determined using BROMOscan™ technology, carried out by Eurofins […]
Discovery according to their standard protocol. Briefly E. coli were infected with T7 phage […]
strains displaying bromodomains and bromodomain protein was subsequently purified […]
through lysis, centrifugation and filtration. Affinity resins were generated by incubation of […]
streptavidin-coated magnetic beads with biotinylated small molecules or acetylated […]
peptide ligands. Binding reactions were assembled by combining the bromodomains and […]
liganded affinity beads in binding buffer (17 % SeaBlock, 0.33x PBS, 0.04 % Tween 20, […]
0.02 % BSA, 0.004 % sodium azide and 7.4 mM DTT) with compounds (11-point, 3-fold […]
dilution series) added to give a final DMSO concentration of 0.09 %. Assay plates were […]
incubated for 1 h, prior to washing and elution of beads. The bromodomain concentration […]
in the eluates was measured by qPCR of the DNA tag on the bromodomain.
KD values were calculated with a standard dose-response curve fitted using the Hill […]
Response = Background + Signal − Background […]
The Hill Slope was set to -1 and curves fitted using a non-linear least square fit with the Levenberg-Marquardt algorithm.
Ligand efficiency (LE) was calculated as follows: LE = 1.4(pIC50)/N

CBP = molecular target: T2, CBP (Homo sapiens, UniProt Q92793); test: Quantification of CBP degradation by Western blotting in LP1 cells; type: cell-based
T2 construct: quantification of CBP and EP300 levels by Western blotting following 16 h treatment of LP1 cells; endogenous in cells; host or cells: LP1 cells
Procedure: (§1) LP1 cells were cultured in DMEM (Gibco, 41966-029) supplemented with 15 % FBS (Sigma, F9665); MM1S and LNCaP cells in RPMI 1640 ATCC modification (Gibco, […]
(§2) DMEM/F12 (Gibco, 11320074) supplemented with 1 % non-essential amino acids […]
additionally supplemented with 1 % penicillin/streptomycin (Gibco, 15070-063), and cells maintained in a humidified incubator with 5 % CO2 at 37 °C. The identity of all lines (except for MM1S which were recently purchased from ATCC) was authenticated by STR profiling (performed by Microsynth).
(§3) Quantification of CBP/EP300 degradation by Western blotting
LP1 cells plated on 6 well plates were treated with the stated compounds at a final concentration of 0.1 % DMSO for the stated time. Cells were harvested on ice, washed in PBS and lysed in RIPA buffer (50 mM tris pH 7.5, 2 mM EDTA, 150 mM NaCl, 0.5 % sodium deoxycholate, 1 % Triton X100) supplemented with cOmplete ™ protease inhibitor cocktail (Roche). Protein concentrations were determined using the Pierce ™ BCA Protein Assay Kit (Thermo Scientific, 23227) and equal amounts were separated on 4-12 % ExpressPl us™ PAGE gels (GenScript, M41215). Proteins were transferred to PVDF membranes, the membranes were blocked with 5 % milk (Merk Millipore, 115363) in PBS-T and proteins were stained with the following antibodies at 4 °C overnight: CBP […]
BRD4 (Bethyl Laboratories, A301-985A50, diluted 1:2000) and vinculin (Invitrogen, 42H89L44, diluted 1:1000). For detection, membranes were incubated for 1 h at room temperature with HRP-conjugated secondary antibodies (Southern Biotech, anti-rabbit […]
SuperSignal™ West Pico PLUS Chemiluminescent Substrate (Thermo Scientific, 34580) and the Vilber Fusion-FX7 imager. Bands were quantified using ImageJ software and protein levels normalized to protein from DMSO treated cells run on the same membrane. For dose response curves, data was fitted using a four -parameter dose-response curve in GraphPad Prism v. 9.5.1, where the top is fixed at 100 %. The DC50 was defined as the PROTAC concentration resulting in 50 % remaining protein. […]

BRD4 = molecular target: T3, BRD4 (Homo sapiens, UniProt O60885); test: Global proteomics / Western blot of BRD4 level; type: cell-based; conditions: LP1 and MM1S cells, 16 h, 1 μM; verified by Western blot
T3 construct: Western blot masurement of BRD4 levels in LP1 cells treated for 16 h with; endogenous in cells; host or cells: LP1 and MM1S cells
Procedure: cooperativity factor (α) was defined as the ratio of the IC50 values in the absence and […]
For the ternary complex experiments, the final assay composition was: 0.1 % DMSO, 5 nM GST-CBP, 5 nM CRBN-Avi(biotin), 100 mM KF, 0.625 nM XL665-Streptavidin conjugate and 0.8 nM anti-GST mAb – Eu3+-cryptate. The maximal control contained 40 nM dCBP-1, the blank contained no PROTAC. Hook curves were generated by normalization to the maximal control.
as §1, §2, §3
LP1 cells plated on 6 well plates were treated with the stated compounds at a final concentration of 0.1 % DMSO for the stated time. […] Protein concentrations were determined using the Pierce ™ BCA Protein Assay Kit (Thermo Scientific, 23227) and equal amounts were separated on 4-12 % ExpressPl us™ PAGE gels (GenScript, M41215). […]
SuperSignal™ West Pico PLUS Chemiluminescent Substrate (Thermo Scientific, 34580) and the Vilber Fusion-FX7 imager. Bands were quantified using ImageJ software and protein levels normalized to protein from DMSO treated cells run on the same membrane. […]

CBP/EP300 = test: Western blot of CBP and EP300 levels in various cell lines; type: cell-based; conditions: 16 h, 1 μM

T2 sequence (Q92793 whole entry): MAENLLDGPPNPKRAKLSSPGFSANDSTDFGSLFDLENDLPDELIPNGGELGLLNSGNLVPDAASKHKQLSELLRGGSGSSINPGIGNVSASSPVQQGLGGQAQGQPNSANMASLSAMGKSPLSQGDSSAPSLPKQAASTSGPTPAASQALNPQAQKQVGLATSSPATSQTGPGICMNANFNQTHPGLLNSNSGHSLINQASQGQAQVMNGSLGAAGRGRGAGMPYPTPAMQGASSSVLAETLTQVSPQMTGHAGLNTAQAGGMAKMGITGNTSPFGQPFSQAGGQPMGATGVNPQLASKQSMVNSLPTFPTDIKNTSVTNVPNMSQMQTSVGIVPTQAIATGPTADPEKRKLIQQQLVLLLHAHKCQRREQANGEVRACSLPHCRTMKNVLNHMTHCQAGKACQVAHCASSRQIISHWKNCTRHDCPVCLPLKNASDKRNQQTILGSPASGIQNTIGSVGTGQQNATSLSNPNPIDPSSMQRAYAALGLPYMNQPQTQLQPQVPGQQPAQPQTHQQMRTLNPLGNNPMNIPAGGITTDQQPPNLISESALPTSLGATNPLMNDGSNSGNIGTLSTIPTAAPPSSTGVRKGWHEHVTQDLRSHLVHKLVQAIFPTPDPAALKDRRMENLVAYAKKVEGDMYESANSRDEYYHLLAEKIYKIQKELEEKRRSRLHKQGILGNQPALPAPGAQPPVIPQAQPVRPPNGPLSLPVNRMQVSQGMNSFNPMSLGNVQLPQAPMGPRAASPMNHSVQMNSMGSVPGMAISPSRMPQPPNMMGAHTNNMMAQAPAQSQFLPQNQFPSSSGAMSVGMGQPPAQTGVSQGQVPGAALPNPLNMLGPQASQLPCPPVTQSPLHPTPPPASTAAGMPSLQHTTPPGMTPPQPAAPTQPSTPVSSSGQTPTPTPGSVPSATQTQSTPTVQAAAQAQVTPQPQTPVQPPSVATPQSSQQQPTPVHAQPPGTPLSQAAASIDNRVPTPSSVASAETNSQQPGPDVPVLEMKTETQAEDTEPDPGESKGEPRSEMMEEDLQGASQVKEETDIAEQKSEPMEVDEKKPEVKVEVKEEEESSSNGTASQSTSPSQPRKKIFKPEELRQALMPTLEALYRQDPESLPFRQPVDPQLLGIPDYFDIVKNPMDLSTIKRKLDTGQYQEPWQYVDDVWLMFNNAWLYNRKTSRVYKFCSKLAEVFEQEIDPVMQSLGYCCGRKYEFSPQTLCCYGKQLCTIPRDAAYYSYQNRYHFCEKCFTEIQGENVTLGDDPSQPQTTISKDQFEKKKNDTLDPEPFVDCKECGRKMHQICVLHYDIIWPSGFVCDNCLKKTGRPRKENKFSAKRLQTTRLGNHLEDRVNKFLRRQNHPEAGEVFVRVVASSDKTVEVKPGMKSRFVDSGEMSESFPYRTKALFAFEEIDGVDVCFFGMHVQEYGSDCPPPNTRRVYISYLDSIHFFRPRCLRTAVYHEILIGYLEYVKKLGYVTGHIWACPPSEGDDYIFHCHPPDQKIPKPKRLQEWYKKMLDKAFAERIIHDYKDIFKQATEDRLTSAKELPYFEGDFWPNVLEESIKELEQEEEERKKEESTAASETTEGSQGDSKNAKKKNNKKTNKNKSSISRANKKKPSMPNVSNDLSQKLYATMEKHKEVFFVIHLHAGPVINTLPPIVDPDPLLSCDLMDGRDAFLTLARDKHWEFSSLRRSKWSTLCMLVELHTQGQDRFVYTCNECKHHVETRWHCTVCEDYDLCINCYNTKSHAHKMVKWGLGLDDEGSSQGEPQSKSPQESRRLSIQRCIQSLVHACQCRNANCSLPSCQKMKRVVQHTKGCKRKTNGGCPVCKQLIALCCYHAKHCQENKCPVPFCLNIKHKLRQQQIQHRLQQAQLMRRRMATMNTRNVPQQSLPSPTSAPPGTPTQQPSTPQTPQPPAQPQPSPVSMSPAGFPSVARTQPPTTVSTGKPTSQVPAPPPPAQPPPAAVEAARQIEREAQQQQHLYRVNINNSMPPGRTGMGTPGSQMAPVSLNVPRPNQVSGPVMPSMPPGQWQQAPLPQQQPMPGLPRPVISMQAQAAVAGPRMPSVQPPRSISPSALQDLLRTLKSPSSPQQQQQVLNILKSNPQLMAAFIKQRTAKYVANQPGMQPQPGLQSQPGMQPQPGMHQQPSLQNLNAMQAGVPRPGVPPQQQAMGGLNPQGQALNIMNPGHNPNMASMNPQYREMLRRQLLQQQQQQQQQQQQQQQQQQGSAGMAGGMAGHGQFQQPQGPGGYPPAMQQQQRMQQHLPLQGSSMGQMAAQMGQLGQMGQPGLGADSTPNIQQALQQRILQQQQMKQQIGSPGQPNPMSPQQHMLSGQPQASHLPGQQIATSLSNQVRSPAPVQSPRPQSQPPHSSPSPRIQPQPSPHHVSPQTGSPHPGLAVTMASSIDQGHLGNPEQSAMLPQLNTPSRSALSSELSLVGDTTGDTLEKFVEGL

SMILES: Cc1cc2c(NC(=O)c3cc(NC(=O)CCCCCCCCCCNc4cccc5c4C(=O)N(C4CCC(=O)NC4=O)C5=O)cc(-c4ccn(C)n4)c3)cccc2nn1 (stereo not drawn) [dCE-2]
- Kd (EP300-BRD; BROMOscan): > 10000 nM
- loss of potency compared to parent compound 3, EP300 (EP300-BRD; BROMOscan KD ratio): > 400 fold
- time at which CBP/EP300 degradation begins to occur (CBP; 1 μM, time course): ≤ 2 h
- time to reach maximal CBP/EP300 degradation (Dmax) (CBP; 1 μM, time course): 16 to 24 h
- % remaining CBP (CBP; 5 μM compound, 16 h, Western blot): 16%
- DC50 (CBP; 16 h): 40 nM
- Dmax (CBP; LP-1, 16 h): > 85%
- level of BRD4 (BRD4): not changed
- CBP/EP300 degradation in MM1S, LNCaP and SH-SY5Y cells (CBP/EP300): active degrader
